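Test compounds were applied to cells in 96-well plates for 48 hours at 5 doses. At the GI50, growth is halved.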 Active and inactive are the calls of the source. Cut-off read from the data, not from the text of the source: active = GI50 up to about 1.1 µM and inactive = higher.
Key:
Assay in all cases: growth of human tumour cells (NCI), 48 h
[1] = tested on: PC-3
[2] = tested on: MDA-MB-435
[3] = tested on: SR
[4] = tested on: SK-MEL-28
[5] = tested on: HCT-15
[6] = tested on: COLO 205
[7] = tested on: SNB-75
[8] = tested on: UO-31
[9] = tested on: MOLT-4
[10] = tested on: OVCAR-5
[11] = tested on: SN12C
[12] = tested on: UACC-257
[13] = tested on: OVCAR-4
[14] = tested on: ACHN
[15] = tested on: OVCAR-8
[16] = tested on: SW-620
[17] = tested on: HOP-62
[18] = tested on: TK-10
[19] = tested on: T47D
[20] = tested on: A549
[21] = tested on: SF-268
[22] = tested on: MDA-MB-231
[23] = tested on: K562
[24] = tested on: HCC 2998
[25] = tested on: EKVX
[26] = tested on: NCI-H23
[27] = tested on: CCRF-CEM
[28] = tested on: U-251
[29] = tested on: CAKI-1
[30] = tested on: LOX IMVI
[31] = tested on: MCF7
[32] = tested on: HL-60
[33] = tested on: UACC-62
[34] = tested on: 786-0
[35] = tested on: OVCAR-3
[36] = tested on: RPMI-8226
[37] = tested on: M14
[38] = tested on: DU-145
[39] = tested on: NCI/ADR-RES
[40] = tested on: KM12
[41] = tested on: MDA-N
[42] = tested on: SF-539
[43] = tested on: BT-549
[44] = tested on: SK-OV-3
[45] = tested on: RXF 393
[46] = tested on: SF-295
[47] = tested on: NCI-H522
[48] = tested on: IGROV-1
[49] = tested on: SK-MEL-2
[50] = tested on: SNB-19
[51] = tested on: HT-29
[52] = tested on: Malme-3M
[53] = tested on: SK-MEL-5
[54] = tested on: HCT-116
[55] = tested on: HOP-92
[56] = tested on: Hs-578T
[57] = tested on: NCI-H460
[58] = tested on: NCI-H226
[59] = tested on: A498

Measured: GI50

CCCCCCCCCCCCCCCCNc1ccc2c(c1)OCCOCCOCCOCCO2
2.88 µM: [5]
inactive: [1] 2.2 µM | [2] 3.17 µM | [3] 3.29 µM | [4] 6.28 µM | [6] 1.75 µM | [7] 3.92 µM | [8] 2.77 µM | [9] 2.5 µM | [10] 3.61 µM | [11] 2.92 µM | [12] 2.56 µM | [13] 4.02 µM | [14] 3.05 µM | [15] 2.68 µM | [16] 3.37 µM | [17] 2.51 µM | [18] 11.7 µM | [19] 3.11 µM | [20] 3.78 µM | [21] 3.76 µM | [22] 2.91 µM | [23] 4.2 µM | [24] 4.03 µM | [25] 4.03 µM | [26] 3.62 µM | [27] 2.19 µM | [28] 2.49 µM | [29] 4 µM | [30] 2.24 µM | [31] 3.61 µM | [32] 2.07 µM | [33] 2.97 µM | [34] 3.64 µM | [35] 2.71 µM | [36] 1.67 µM | [37] 3.79 µM | [38] 4.24 µM | [39] 2.37 µM | [40] 2.06 µM | [41] 3.14 µM | [42] 2.32 µM | [43] 3.44 µM | [44] 3.4 µM | [45] 2.3 µM | [46] 2.33 µM | [47] 2.33 µM | [48] 2.91 µM | [49] 2.25 µM | [50] 3.37 µM | [51] 2.75 µM | [52] 3.56 µM | [53] 2.25 µM | [54] 3.04 µM | [55] 2.37 µM | [56] 2.82 µM | [57] 3.1 µM | [58] 1.77 µM

COc1ccc2c3c1O[C@H]1C(O)CCC4(O)[C@@H](C2)NCC[C@]314 (stereo partly drawn)
inactive: [1] > 100 µM | [2] > 100 µM | [3] > 100 µM | [4] > 100 µM | [6] > 100 µM | [8] > 100 µM | [9] > 100 µM | [10] > 100 µM | [11] > 100 µM | [12] > 100 µM | [13] > 100 µM | [14] > 100 µM | [15] > 100 µM | [16] > 100 µM | [17] > 100 µM | [18] > 100 µM | [19] > 100 µM | [20] > 100 µM | [21] > 100 µM | [22] > 100 µM | [23] > 100 µM | [25] > 100 µM | [26] > 100 µM | [27] > 100 µM | [28] > 100 µM | [29] > 100 µM | [30] > 100 µM | [31] > 100 µM | [32] > 100 µM | [33] > 100 µM | [34] > 100 µM | [35] > 100 µM | [36] > 100 µM | [37] > 100 µM | [38] > 100 µM | [39] > 100 µM | [40] > 100 µM | [41] > 100 µM | [42] > 100 µM | [43] > 100 µM | [44] > 100 µM | [46] > 100 µM | [47] > 100 µM | [48] > 100 µM | [49] > 100 µM | [50] > 100 µM | [51] > 100 µM | [52] > 100 µM | [53] > 100 µM | [54] > 100 µM | [55] > 100 µM | [59] > 100 µM | [56] > 100 µM | [58] > 100 µM
> 100 µM: [5]

CC(=O)OCC1OC(O[C@H]2C=C[C@@H](C(=O)OCc3ccccc3)n3c(=O)n(-c4ccccc4)c(=O)n32)C(OC(C)=O)C(OC(C)=O)C1OC(C)=O (stereo partly drawn)
inactive: [1] 3.69 µM | [2] 2.07 µM | [3] 1.3 µM | [4] 1.86 µM | [6] 2 µM | [7] 10.9 µM | [8] 1.57 µM | [9] 2.09 µM | [10] 2.23 µM | [11] 1.94 µM | [12] 1.92 µM | [13] 2.54 µM | [14] 1.71 µM | [15] 2.48 µM | [16] 1.77 µM | [17] 5.01 µM | [18] 2.02 µM | [19] 2.62 µM | [20] 17.2 µM | [21] 1.78 µM | [22] 1.89 µM | [23] 1.63 µM | [24] 1.73 µM | [25] 1.95 µM | [26] 2.96 µM | [28] 2.14 µM | [29] 1.48 µM | [30] 1.2 µM | [31] 1.17 µM | [33] 1.59 µM | [34] 1.6 µM | [35] 1.79 µM | [37] 1.78 µM | [38] 2.61 µM | [39] 3.2 µM | [40] 3.27 µM | [41] 2.77 µM | [42] 1.82 µM | [43] 1.8 µM | [44] 18.7 µM | [45] 2.24 µM | [46] 10.6 µM | [48] 2.34 µM | [49] 4.66 µM | [50] 15.7 µM | [51] 1.56 µM | [53] 1.14 µM | [54] 2.22 µM | [55] 1.96 µM | [59] 2.55 µM | [56] 1.99 µM | [57] 1.58 µM | [58] 4.55 µM
active: [27] 0.851 µM | [32] 0.262 µM | [36] 0.879 µM | [47] 0.986 µM
0.741 µM: [5]

Oc1ccc(O)c(CNc2ccccc2)c1
inactive: [1] 10.1 µM | [2] 8.81 µM | [3] 2.29 µM | [4] 33 µM | [6] 18.8 µM | [7] 33.5 µM | [8] 10.7 µM | [9] 2.26 µM | [10] 21.6 µM | [11] 11.3 µM | [12] 16.9 µM | [13] 13 µM | [14] 10.5 µM | [15] 8.02 µM | [16] 13.6 µM | [18] 22.7 µM | [19] 8.41 µM | [20] 26.4 µM | [21] 11.6 µM | [22] 17.7 µM | [23] 1.65 µM | [24] 26.2 µM | [25] 18.7 µM | [26] 10.2 µM | [27] 2.37 µM | [28] 17.1 µM | [29] 6.89 µM | [30] 6.15 µM | [31] 15.1 µM | [32] 2.67 µM | [33] 13.3 µM | [34] 10.3 µM | [35] 4.62 µM | [37] 15.7 µM | [38] 12.3 µM | [39] 7.01 µM | [40] 5.13 µM | [41] 3.85 µM | [42] 3.46 µM | [43] 7.93 µM | [44] 19.2 µM | [45] 5.64 µM | [46] 12.1 µM | [47] 1.94 µM | [48] 8.53 µM | [49] 24.2 µM | [50] 19.5 µM | [51] 32.2 µM | [52] 14.2 µM | [53] 16.8 µM | [54] 7.26 µM | [55] 5.07 µM | [56] 25.5 µM | [57] 20.8 µM | [58] 26.7 µM
10.3 µM: [5]
active: [36] 1.02 µM

COc1cc(CCN(C)C)cc(OC)c1OC
> 100 µM: [5]
inactive: [1] > 100 µM | [2] > 100 µM | [3] > 100 µM | [6] > 100 µM | [7] > 100 µM | [9] > 100 µM | [10] > 100 µM | [11] > 100 µM | [12] > 100 µM | [13] > 100 µM | [14] > 100 µM | [15] > 100 µM | [16] > 100 µM | [17] > 100 µM | [18] > 100 µM | [19] > 100 µM | [20] > 100 µM | [21] > 100 µM | [22] > 100 µM | [23] > 100 µM | [24] > 100 µM | [25] > 100 µM | [26] > 100 µM | [27] > 100 µM | [28] > 100 µM | [29] > 100 µM | [30] > 100 µM | [31] > 100 µM | [32] > 100 µM | [33] > 100 µM | [35] > 100 µM | [36] > 100 µM | [37] > 100 µM | [38] > 100 µM | [39] > 100 µM | [40] > 100 µM | [41] > 100 µM | [42] > 100 µM | [43] > 100 µM | [44] > 100 µM | [45] > 100 µM | [46] > 100 µM | [47] > 100 µM | [48] > 100 µM | [49] > 100 µM | [50] > 100 µM | [51] > 100 µM | [53] > 100 µM | [54] > 100 µM | [55] > 100 µM | [59] > 100 µM | [56] > 100 µM | [57] > 100 µM | [58] > 100 µM

— ChEMBL document CHEMBL1201862, “PubChem BioAssay data set” (2004)
